Here are results for 59 molecules from US20240002368A1 (QILU REGOR THERAPEUTICS INC., priority 2020, published 2024).

By IC50 is commonly meant the midpoint of a concentration-inhibition curve.

For one test, the system named is STING pathway. Kind of test: IFN β reporter assay (HTRF, 2′3′-cGAMP-stimulated THP1 cells). Conditions: Homo sapiens, THP-1, THP1 cells, 5 μM 2′3′-cGAMP, IFN β secretion inhibition; class symbols; read-out: IFN β reporter activity IC50. Type of test: cell-based, human. The protocol:
STING pathway deactivation by the compounds described herein was measured using THP1 cells. The THP1 Cells (obtained from ATCC, Cat #TIB-202) were maintained in RPMI-1640 (Gibco, Cat #22400105), 10% FBS, 1% Pen-Strep, 0.05 mM 2-mercaptoethanol. For STING activation, 2′3′-cGAMP (MW 718.38, obtained from Invivogen) was used and prepared in serum-free RPMI-1640 media. Growth media: RPMI-1640 (HEPES, glutamine), 10% FBS, 1% Pen-Strep, 0.05 mM 2-mercaptoethanol. Assay media: RPMI-1640 (HEPES, glutamine), 0.5% FBS. 2′3′-cGAMP: Dissolve 2′3′-cGAMP to 10 mM stock in H2O.
The cells were prepared and seeded at 100K, 90 μL/well with assay media in cell culture plate (Greiner 655180). The compounds were added in 96-well tissue culture plates by Tecan D300e for a final concentration of 0.00137-3 μM.
Lipo2000/3000 and 2′3′-cGAMP stock solutions were diluted respectively in serum-free RPMI-1640 media. The diluted 2′3′-cGAMP and Lipo (V/V=1:1) were mixed and stood for 15 min at room temperature. 10 μL 2,3-cGAMP/Lipofectamine (10×) was transferred to the 96-well assay plate with a final 2′3′-cGAMP concentration of 5 μM. The cell plates were centrifuged at 1000 rpm for 5 min after incubating at 37° C., 5% CO2 overnight.
All reagents (human IFN beta kit, Cisbio 62HIFNBPEG) were warmed to room temperature for at least 30 min before the assay. The instructions of the kit were followed to prepare the detection media. 14 μL of cell supernatants was transferred into their dedicated wells in 384-well plate. Then 2 μL of the activation reagent solution and 4 μL of the mixed antibody solution were added to all wells. The plate was sealed and incubated for 3 h at room temperature.
The HTRF signal was read in Envision (PerkinElmer). IFN β reporter activity was then measured. The calculated ratio is the signal at 665 nm/signal at 615 nm. IC50 values are calculated by using standard methods known in the art.
Turning to `CC(NCC(F)(F)F)c1cc2c(cc1F)c(C(=O)Nc1c[nH]c3ccc(F)cc13)cn2C` (racemic) [Example 107, rac-5-fluoro-N-(5-fluoro-1H-indol-3-yl)-1-methyl-6-[1-(2,2,2-trifluoroethylamino)ethyl]indole-3-carboxamide], the IC50 fell in the range of 0.05 to 0.2 µM.

As to `O=C(Nc1c[nH]c2c(F)cccc12)c1n[nH]c2cc(C(F)(F)F)ccc12` [Example 6], the IC50 fell in the range of 0.2 to 1 µM.

With `O=C(Nc1c[nH]c2ccc(F)cc12)c1n[nH]c2ncc(Br)cc12` [Example 7], the IC50 lay in the range of 0.05 to 0.2 µM.

With `O=C(Nc1c[nH]c2ccc(F)cc12)c1n[nH]c2cc(C(F)(F)F)ccc12` [Example 8], the 50% inhibitory concentration (IC50) was less than 0.05 µM.

As to `O=C(Nc1c[nH]c2ccccc12)c1n[nH]c2cc(Br)ccc12` [Example 9], the 50% inhibitory concentration (IC50) was less than 0.05 µM.

As for `O=C(Nc1c[nH]c2ccc(C(F)(F)F)cc12)c1n[nH]c2cc(C(F)(F)F)ccc12` [Example 10], the IC50 lay in the range of 0.05 to 0.2 µM.

Consider `O=C(Nc1c[nH]c2ccc(F)cc12)c1n[nH]c2cc(OC(F)(F)F)ccc12` [Example 11], for which the IC50 lay in the range of 0.2 to 1 µM.

On to `O=C(Nc1c[nH]c2ccc(F)cc12)c1n[nH]c2cc(Cl)c(Cl)cc12` [Example 12], for which the IC50 was less than 0.05 µM.

On to `CS(=O)(=O)c1ccc2c(C(=O)Nc3c[nH]c4ccc(F)cc34)n[nH]c2c1` [Example 13], for which the IC50 is more than 1 µM.

In the case of `C#Cc1ccc2c(C(=O)Nc3c[nH]c4ccc(F)cc34)n[nH]c2c1` [Example 14], the IC50 is 0.05 to 0.2 µM.

With `O=C(Nc1c[nH]c2ccc(Br)cc12)c1n[nH]c2cc(C(F)(F)F)ccc12` [Example 15], the IC50 was less than 0.05 µM.

Take `O=C(Nc1c[nH]c2ccccc12)c1n[nH]c2cc(C3CCOCC3)ccc12` [Example 16]: the IC50 lay within 0.05 to 0.2 µM.

With `O=C(Nc1c[nH]c2cc(F)c(F)cc12)c1n[nH]c2cc(C(F)(F)F)ccc12` [Example 17], the IC50 is less than 0.05 µM.

As for `Cn1cc(C(=O)Nc2c[nH]c3ccc(P(C)(C)=O)cc23)c2ccc(C(F)(F)F)cc21` [Example 21], the IC50 is more than 1 µM.

Regarding `O=C(Nc1c[nH]c2ccc(F)cc12)c1cnn2cc(Cl)ccc12` [Example 23], the IC50 fell in the range of 0.2 to 1 µM.

Take `O=C(Nc1c[nH]c2ccc(F)cc12)c1cnn2cc(Br)ccc12` [Example 24]: the IC50 was less than 0.05 µM.

For `O=C(Nc1c[nH]c2cccc(F)c12)c1n[nH]c2cc(C(F)(F)F)ccc12` [Example 26], the IC50 is 0.05 to 0.2 µM.

As for `COC(=O)c1ccc2c(C(=O)Nc3c[nH]c4ccc(F)cc34)n[nH]c2c1` [Example 27], the IC50 is more than 1 µM.

Turning to `O=C(Nc1c[nH]c2ccc(F)cc12)c1n[nH]c2cc(C3CCOCC3)ccc12` [Example 28], the IC50 was 0.05 to 0.2 µM.

As to `O=C(Nc1c[nH]c2ccc(F)cc12)c1n[nH]c2cc(C3=CCOCC3)ccc12` [Example 29], the IC50 fell in the range of 0.05 to 0.2 µM.

As to `O=C(Nc1c[nH]c2ccccc12)c1n[nH]c2cc(C(F)(F)F)ccc12` [Example 31], the IC50 was less than 0.05 µM.

Take `COC(=O)c1ccc2[nH]cc(NC(=O)c3cn(C)c4cc(C(F)(F)F)ccc34)c2c1` [Example 33]: the IC50 lay within 0.05 to 0.2 µM.

Consider `Cn1cc(C(=O)Nc2c[nH]c3ccc(C(N)=O)cc23)c2ccc(C(F)(F)F)cc21` [Example 34], for which the IC50 was more than 1 µM.

Consider `Cn1cc(C(=O)Nc2c[nH]c3ccc(S(C)(=O)=O)cc23)c2ccc(C(F)(F)F)cc21` [Example 37], for which the IC50 is more than 1 µM.

For `Cn1cc(C(=O)Nc2c[nH]c3ccc(N4CCN(C(=O)OC(C)(C)C)CC4=O)cc23)c2ccc(C(F)(F)F)cc21` [Example 38], the IC50 fell in the range of 0.05 to 0.2 µM.

Regarding `CN(Cc1ccc2[nH]cc(NC(=O)c3cn(C)c4cc(C(F)(F)F)ccc34)c2c1)C(=O)OC(C)(C)C` [Example 39], the IC50 is 0.05 to 0.2 µM.

On to `Cn1cc(C(=O)Nc2c[nH]c3cc(F)c(Cl)cc23)c2cc(F)c(C3CCOCC3)cc21` [Example 48], for which the IC50 was in the range of 0.05 to 0.2 µM.

Consider `C[C@H]1COCCN1c1cc2c(cc1F)c(C(=O)Nc1c[nH]c3ccc(F)cc13)cn2C` [Example 49], for which the IC50 fell in the range of 0.2 to 1 µM.

As for `C[C@@H]1COCCN1c1cc2c(cc1F)c(C(=O)Nc1c[nH]c3ccc(F)cc13)cn2C` [Example 50], the IC50 was in the range of 0.2 to 1 µM.

Take `O=C(Nc1c[nH]c2cc(F)c(F)cc12)c1c[nH]c2cc(C(F)(F)F)ccc12` [Example 52]: the IC50 was less than 0.05 µM.

Regarding `O=C(Nc1c[nH]c2ccc(F)cc12)c1c[nH]c2cc(C(F)(F)F)ccc12` [Example 53], the IC50 is less than 0.05 µM.

Regarding `Cn1cc(C(=O)Nc2c[nH]c3ccc(C#N)cc23)c2ccc(C3=CCOCC3)cc21` [Example 54], the IC50 lay in the range of 0.2 to 1 µM.

For `Cn1cc(C(=O)Nc2c[nH]c3ccc(C#N)cc23)c2cc(Cl)c(C3=CCOCC3)cc21` [Example 55], the IC50 lay in the range of 0.05 to 0.2 µM.

As for `O=C(Nc1c[nH]c2ccccc12)c1cc2ccc(C(F)(F)F)cc2[nH]1` [Example 56], the concentration for half-maximal inhibition (IC50) lay in the range of 0.05 to 0.2 µM.

In the case of `O=C(Nc1c[nH]c2ccc(F)cc12)c1cc2ccc(Br)cn2n1` [Example 57], the IC50 is less than 0.05 µM.

Consider `O=C(Nc1c[nH]c2cc(F)c(F)cc12)c1cc2ccc(Br)cn2n1` [Example 58], for which the 50% inhibitory concentration (IC50) was in the range of 0.2 to 1 µM.

The same test, now with this note: Homo sapiens, THP-1, THP1 cells, 5 μM 2′3′-cGAMP, IFN β secretion inhibition; numeric values (comparators); read-out: IFN β reporter activity IC50.
Take `O=C(Nc1c[nH]c2cc(F)c(F)cc12)c1cnc2[nH]ncc2c1` [Comparator A, reference compound]: the IC50 was more than 30 µM.

In the case of `O=C(Nc1c[nH]c2cc(F)c(F)cc12)c1nc2ccncc2s1` [Comparator B, reference compound], the IC50 is more than 3 µM.

As for `Cn1cc(NC(=O)c2cn(C)c3cc(C(F)(F)F)ccc23)c2cc(C#N)ccc21` [Comparator D, reference compound], the IC50 was determined as 10 µM.

`CN(C(=O)c1n[nH]c2cc(C(F)(F)F)ccc12)c1c[nH]c2ccc(F)cc12` [Comparator E, reference compound]: the IC50 turned out to be 12 µM.

The same test, now with this note: Homo sapiens, THP-1, read-out: IFN β reporter activity IC50.
With `Cc1[nH]c2ccc(F)cc2c1NC(=O)c1cn(C)c2cc(C(F)(F)F)ccc12` [Comparator C, reference compound], the IC50 turned out to be 11 µM.

Turning to `Cn1nc(C(=O)Nc2c[nH]c3ccccc23)c2ccc(C(F)(F)F)cc21` [Example 1, N-(1H-indol-3-yl)-1-methyl-6-(trifluoromethyl)indazole-3-carboxamide], the IC50 was in the range of 0.05 to 0.2 µM.

`Cn1nc(C(=O)Nc2c[nH]c3ccccc23)c2cc(Br)ccc21` [Example 3]: the IC50 fell in the range of 0.05 to 0.2 µM.

With `Cn1nc(C(=O)Nc2c[nH]c3ccccc23)c2ccc(Br)cc21` [Example 4], the IC50 lay in the range of 0.05 to 0.2 µM.

Take `CC(C)n1nc(C(=O)Nc2c[nH]c3ccccc23)c2ccc(C(F)(F)F)cc21` [Example 5]: the IC50 was in the range of 0.2 to 1 µM.

As to `Cn1cc(C(=O)Nc2c[nH]c3ccccc23)c2ccc(C(F)(F)F)cc21` [Example 18], the IC50 fell in the range of 0.05 to 0.2 µM.

With `Cn1cc(C(=O)Nc2c[nH]c3ccc(F)cc23)c2ccc(C(F)(F)F)cc21` [Example 20], the IC50 was less than 0.05 µM.

Regarding `Cn1cc(C(=O)Nc2c[nH]c3ccc(F)cc23)c2cc(C(F)(F)F)cnc21` [Example 22], the IC50 lay in the range of 0.2 to 1 µM.

In the case of `O=C(Nc1c[nH]c2ccccc12)c1nn(CC2CC2)c2cc(C(F)(F)F)ccc12` [Example 30], the half-inhibitory concentration (IC50) was in the range of 0.05 to 0.2 µM.

As for `Cn1cc(C(=O)Nc2c[nH]c3ccc(F)cc23)c2ccc(Cl)cc21` [Example 32], the IC50 is less than 0.05 µM.

For the molecule `Cn1cc(C(=O)Nc2c[nH]c3ccc(F)cc23)c2ccccc21` [Example 35], the IC50 lay within 0.2 to 1 µM.

Regarding `Cn1cc(C(=O)Nc2c[nH]c3ccc(C#N)cc23)c2ccc(C(F)(F)F)cc21` [Example 36], the IC50 is less than 0.05 µM.

Turning to `N#Cc1ccc2[nH]cc(NC(=O)c3cn(C4CC4)c4nc(OCC(F)(F)F)ccc34)c2c1` [Example 41], the IC50 lay within 0.05 to 0.2 µM.

In the case of `N#Cc1ccc2[nH]cc(NC(=O)c3cn(C4CC4)c4nc(O[C@H]5CCOC5)ccc34)c2c1` [Example 42], the IC50 fell in the range of 0.2 to 1 µM.

For the molecule `N#Cc1ccc2[nH]cc(NC(=O)c3cn(C4CC4)c4nc(O[C@@H]5CCOC5)ccc34)c2c1` [Example 43], the IC50 is 0.2 to 1 µM.

Take `COCCOc1ccc2c(C(=O)Nc3c[nH]c4ccc(F)cc34)cn(C3CC3)c2n1` [Example 46]: the IC50 lay in the range of 0.05 to 0.2 µM.

`COCCOc1ccc2c(C(=O)Nc3c[nH]c4ccc(C#N)cc34)cn(C3CC3)c2n1` [Example 47]: the 50% inhibitory concentration (IC50) was 0.2 to 1 µM.

Regarding `COc1ccc2[nH]cc(NC(=O)c3cn(C)c4cc(C(F)(F)F)ccc34)c2c1` [Example 51], the IC50 was in the range of 0.05 to 0.2 µM.

The test is the same for the next values; noted with them: THP1 cells, 5 μM 2′3′-cGAMP, IFN β secretion inhibition; class symbols; read-out: IFN β reporter activity IC50.
`O=C(Nc1c[nH]c2ccccc12)c1n[nH]c2cc(C(F)(F)F)ccc12` [Example 2]: the 50% inhibitory concentration (IC50) was 0.05 to 0.2 µM.
